Measured values as given in publication PMC3104272 (Journal of medicinal chemistry, 2011).
Converted amounts (≈) assume the structure as drawn. Where two headings read alike, the source gives them in different places.

How the values were obtained:
[1] = NADPH and UDPGA relative to NADPH alone; putative P + 176 metabolite
Solubility estimates = assay type: physicochemical; settings: for Solubility pH 2.0: 0.01M HCl (approximately pH 2.0)
[2] = In vitro metabolic stability, human liver microsomes; assay type: in vitro ADME; settings: calculated hepatic extraction ratio
Falcipain 2 = target: T1, Falcipain 2 (Plasmodium falciparum, UniProt Q8I6U4); test: Falcipain 2 inhibition assay; assay type: biochemical; settings: averages of duplicate determinations
T1 sequence (Q8I6U4 244-484): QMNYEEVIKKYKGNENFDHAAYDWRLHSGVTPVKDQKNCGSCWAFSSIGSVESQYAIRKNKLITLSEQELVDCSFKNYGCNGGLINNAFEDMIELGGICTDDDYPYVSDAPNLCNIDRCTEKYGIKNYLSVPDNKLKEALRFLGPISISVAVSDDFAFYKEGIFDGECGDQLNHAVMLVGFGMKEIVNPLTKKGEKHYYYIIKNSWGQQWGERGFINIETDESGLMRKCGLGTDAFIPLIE

[3] = In vitro metabolic stability, mouse liver microsomes; assay type: in vitro ADME; settings: calculated hepatic extraction ratio
[4] = test system: Chinese Hamster Ovarian (mammalian) cell line; test: Cytotoxicity against Chinese Hamster Ovarian cell line; assay type: cell-based; settings: highest concentration (100 µM) tested
[5] = test system: P. falciparum chloroquine resistant strain Dd2; test: In vitro antiplasmodial activity, Dd2 strain; assay type: cell-based; settings: Plasmodium falciparum, DD2, read-out: IC50, Dd2
[6] = test system: P. falciparum chloroquine sensitive strain D10; test: In vitro antiplasmodial activity, D10 strain; assay type: cell-based; settings: Plasmodium falciparum, D10, read-out: IC50, D10
[7] = test system: P. falciparum chloroquine resistant strain W2; test: In vitro antiplasmodial activity, W2 strain; assay type: cell-based; settings: Plasmodium falciparum, W2, read-out: IC50, W2
[8] = test system: Chinese Hamster Ovarian (mammalian) cell line; settings: previously reported finding; cited from earlier work

SMILES | Primary glucuronidation [1] | solubility (Solubility estimates; phosphate buffer, pH 6.5) | Microsome-Predicted Extraction ratio (EH), Human [2] | Falcipain 2 (IC50) (Falcipain 2) | Microsome-Predicted Extraction ratio (EH), Mouse [3] | also measured
COc1cc(/C=C/C(C)=O)ccc1OCc1cn(-c2ccnc3cc(Cl)ccc23)nn1 [Compound 12] | no putative metabolites detected with molecular weights consistent with glucuronidation | 3.1 to 6.3 µg/mL (≈ 7.13 to 14.5 µM) | – | – | – | Solubility pH 2.0 (Solubility estimates; 1% DMSO): no increase in solubility under acidic conditions; solubility (Solubility estimates; 0.01M HCl, pH 2): 3.1 to 6.3 µg/mL (≈ 7.13 to 14.5 µM)
CC(=O)/C=C/c1ccc(O)c(CN2CCN(c3ccnc4cc(Cl)ccc34)CC2)c1 [Compound 26, 4-{3-[4-(7-Chloro-quinolin-4-yl)-piperazin-1-ylmethyl]-4-hydroxy-phenyl}-but-3-en-2-one] | – | – | 0.93 | lower micromolar IC50 values | 0.84 | –
COc1ccc(C(=O)/C=C/c2ccc(O)c(CN3CCN(c4ccnc5cc(Cl)ccc45)CC3)c2)c(OC)c1 [Compound 27, 3-{3-[4-(7-Chloro-quinolin-4-yl)-piperazin-1-ylmethyl]-4-hydroxy-phenyl}-1-(2,4-dimethoxy-phenyl)-propenone] | – | – | – | lower micromolar IC50 values | – | Cytotoxicity [4]: No cytotoxicity was observed
COc1ccc(C(=O)/C=C/c2ccc(OCCN3CCN(c4ccnc5cc(Cl)ccc45)CC3)c(OC)c2)c(OC)c1 [Compound 23, 3-(4-{2-[4-(7-Chloro-quinolin-4-yl)-piperazin-1-yl]-ethoxy}-3-methoxy-phenyl)-1-(2,4-dimethoxy-phenyl)-propenone] | no major increase in the rate of degradation | – | – | lower micromolar IC50 values | – | –
COc1ccc(C(=O)/C=C/c2cc(CN3CCN(c4ccnc5cc(Cl)ccc45)CC3)c(O)c(OC)c2)c(OC)c1 [Compound 25, 3-{3-[4-(7-Chloro-quinolin-4-yl)-piperazin-1-ylmethyl]-4-hydroxy-5-methoxyphenyl}-1-(2,4-dimethoxy-phenyl)-propenone] | – | – | 0.72 | lower micromolar IC50 values | 0.87 | Cytotoxicity [4]: No cytotoxicity was observed
COc1cc(/C=C/C(C)=O)ccc1OCCN1CCN(c2ccnc3cc(Cl)ccc23)CC1 [Compound 22, 4-(4-{2-[4-(7-Chloro-quinolin-4-yl)-piperazin-1-yl]-ethoxy}-3-methoxy-phenyl)-but-3-en-2-one] | no putative metabolites detected with molecular weights consistent with glucuronidation | 1.6 to 3.1 µg/mL (≈ 3.43 to 6.65 µM) | – | relatively low potencies | – | –
COc1cc(/C=C/C(C)=O)cc(CN2CCN(c3ccnc4cc(Cl)ccc34)CC2)c1O [Compound 24, 4-{3-[4-(7-Chloro-quinolin-4-yl)-piperazin-1-ylmethyl]-4-hydroxy-5-methoxyphenyl}-but-3-en-2-one] | – | 1.6 to 3.1 µg/mL (≈ 3.54 to 6.86 µM) | 0.85 | relatively low potencies | 0.84 | –
CCN(CC)CCCC(C)Nc1ccnc2cc(Cl)ccc12 (stereo not drawn) [Chloroquine] | no major increase in the rate of degradation | – | – | – | – | IC50 [5]: 97 nM; IC50 [6]: 17 nM; IC50 [7]: 69 nM
COc1cc(/C=C/C(C)=O)ccc1OCCNc1ccnc2cc(Cl)ccc12 [Compound 20, 4-{4-[2-(7-Chloro-quinolin-4-ylamino)-ethoxy]-3-methoxy-phenyl}-but-3-en-2-one] | no major increase in the rate of degradation | 6.3 to 12.5 µg/mL (≈ 15.9 to 31.5 µM) | 0.90 | relatively low potencies | 0.85 | solubility (Solubility estimates; 0.01M HCl, pH 2): 50 to 100 µg/mL (≈ 126 to 252 µM); Solubility pH 6.5 (Solubility estimates; pH 6.5 phosphate buffer, 1% DMSO): moderate solubility
COc1ccc(C(=O)/C=C/c2ccc(OCc3cn(-c4ccnc5cc(Cl)ccc45)nn3)c(OC)c2)c(OC)c1 [Compound 8b] | no major increase in the rate of degradation | – | – | lower micromolar IC50 values | – | Cytotoxicity [8]: No cytotoxicity was observed; Solubility pH 2.0 (Solubility estimates; 1% DMSO): no increase in solubility under acidic conditions
COc1ccc(C(=O)/C=C/c2ccc(OCCNc3ccnc4cc(Cl)ccc34)c(OC)c2)c(OC)c1 [Compound 21, 3-{4-[2-(7-Chloro-quinolin-4-ylamino)-ethoxy]-3-methoxy-phenyl}-1-(2,4-dimethoxy-phenyl)-propenone] | no major increase in the rate of degradation | 3.1 to 6.3 µg/mL (≈ 5.97 to 12.1 µM) | 0.85 | lower micromolar IC50 values | 0.86 | –
